Here are results for nine compounds from patent US20230091225A1, “Bifunctional chimeric heterocyclic compounds for targeted degradation of androgen receptors and use thereof” (HINOVA PHARMACEUTICALS INC., priority 2019, published 2023).

SMILES strings stand for the structures. Read-outs that look alike come from different tables or passages of the source.

In this experiment the target is T1, androgen receptor (AR) (Homo sapiens, UniProt P10275).
T1 sequence (P10275 1-920): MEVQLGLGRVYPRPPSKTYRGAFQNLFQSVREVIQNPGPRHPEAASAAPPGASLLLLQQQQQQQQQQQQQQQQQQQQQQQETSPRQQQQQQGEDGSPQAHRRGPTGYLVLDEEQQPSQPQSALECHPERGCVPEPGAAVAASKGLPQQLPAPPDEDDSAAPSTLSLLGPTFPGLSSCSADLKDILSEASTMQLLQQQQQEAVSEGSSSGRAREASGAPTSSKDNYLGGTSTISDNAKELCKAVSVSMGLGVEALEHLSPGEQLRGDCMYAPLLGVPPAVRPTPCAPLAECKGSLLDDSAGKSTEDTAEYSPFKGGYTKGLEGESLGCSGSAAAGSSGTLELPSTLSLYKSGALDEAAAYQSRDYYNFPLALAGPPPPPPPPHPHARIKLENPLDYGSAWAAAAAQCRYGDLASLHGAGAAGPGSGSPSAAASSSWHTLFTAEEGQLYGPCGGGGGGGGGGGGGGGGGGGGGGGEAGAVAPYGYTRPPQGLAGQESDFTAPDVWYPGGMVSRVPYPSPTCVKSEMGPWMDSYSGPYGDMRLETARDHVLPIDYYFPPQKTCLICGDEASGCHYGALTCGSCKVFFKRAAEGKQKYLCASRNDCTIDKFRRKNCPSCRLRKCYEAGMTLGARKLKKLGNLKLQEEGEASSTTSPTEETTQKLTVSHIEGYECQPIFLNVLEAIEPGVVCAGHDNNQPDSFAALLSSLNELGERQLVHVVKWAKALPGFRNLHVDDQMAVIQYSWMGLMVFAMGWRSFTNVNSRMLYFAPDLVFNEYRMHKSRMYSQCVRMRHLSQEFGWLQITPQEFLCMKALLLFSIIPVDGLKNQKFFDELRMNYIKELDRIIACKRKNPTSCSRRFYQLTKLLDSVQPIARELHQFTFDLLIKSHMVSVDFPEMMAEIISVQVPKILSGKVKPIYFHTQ
In words: Degradation of androgen receptor (AR) protein in VCaP cells by ELISA. Format: cell-based. The note with it: for Dmax: VCaP.

The mark [1] stands for this setting: AR degradation, VCaP cells, 16 h, ELISA, Table 3-1, read-out: DC50.
[2] abbreviates: AR degradation, VCaP cells, 16 h, ELISA, Table 3-1, read-out: Dmax (%).

`CN(C1CCN(c2ccc(C(=O)N[C@H]3CC[C@H](Oc4ccc(C#N)c(Cl)c4)CC3)nn2)CC1)C1CCN(c2cc3c(cc2F)C(=O)N(C2CCC(=O)NC2=O)C3=O)CC1` (stereo partly drawn) [Compound 119] registered a Dmax greater than 80%. In addition, the 50% degradation concentration (DC50) under setting [1] is less than 10 nM.

Take `N#Cc1ccc(O[C@H]2CC[C@H](NC(=O)c3ccc(N4CCC(CN5CC6(C5)CN(c5ccc7c(c5)C(=O)N(C5CCC(=O)NC5=O)C7=O)C6)CC4)nn3)CC2)cc1Cl` (stereo partly drawn) [Compound 121, N-((1r,4r)-4-(3-chloro-4-cyanophenoxy)cyclohexyl)-6-(4-((6-(2-(2,6-dioxopiperidin-3-yl)-1,3-dioxoisoindolin-5-yl)-2,6-diazaspiro[3.3]heptan-2-yl)methyl)piperidin-1-yl)pyridazine-3-amide]: the DC50 is less than 10 nM and the Dmax is greater than 80%.

In turn, `N#Cc1ccc(O[C@H]2CC[C@H](NC(=O)c3ccc(N4CCC(CN5CC6(C5)CN(c5cc7c(cc5F)C(=O)N(C5CCC(=O)NC5=O)C7=O)C6)CC4)nn3)CC2)cc1Cl` (stereo partly drawn) [Compound 122, N-((1r,4r)-4-(3-chloro-4-cyanophenoxy)cyclohexyl)-6-(4-((6-(2-(2,6-dioxopiperidin-3-yl)-6-fluoro-1,3-dioxoisoindolin-5-yl)-2,6-diazaspiro[3.3]heptan-2-yl)methyl)piperidin-1-yl)pyridazine-3-amide] registered a DC50 of less than 10 nM and a Dmax greater than 80%.

In the case of `N#Cc1ccc(O[C@H]2CC[C@H](NC(=O)c3ccc(N4CC5(CN(CC6CCN(c7cc8c(cc7F)C(=O)N(C7CCC(=O)NC7=O)C8=O)CC6)C5)C4)nn3)CC2)cc1Cl` (stereo partly drawn) [Compound 124], the DC50 under setting [1] was less than 10 nM. Also, under setting [2], the Dmax is greater than 80%.

For `N#Cc1ccc(O[C@H]2CC[C@H](NC(=O)c3cnc(N4CC5(CN(CC6CCN(c7cc8c(cc7F)C(=O)N(C7CCC(=O)NC7=O)C8=O)CC6)C5)C4)cn3)CC2)cc1Cl` (stereo partly drawn) [Compound 125], under setting [1], the DC50 is less than 10 nM. The Dmax under setting [2] is greater than 80%.

Regarding `N#Cc1ccc(O[C@H]2CC[C@H](NC(=O)c3ccc(N4CCN(C[C@@H]5[C@H]6CN(c7cc8c(cc7F)C(=O)N(C7CCC(=O)NC7=O)C8=O)C[C@@H]56)CC4)nn3)CC2)cc1Br` (stereo partly drawn) [Compound 126, N-((1r,4r)-4-(3-bromo-4-cyanophenoxy)cyclohexyl)-6-(4-(((1R,5S,6s)-3-(2-(2,6-dioxopiperidin-3-yl)-6-fluoro-1,3-dioxoisoindolin-5-yl)-3-azabicyclo[3.1.0]hexan-6-yl)methyl)piperazin-1-yl)pyridazine-3-amide], the Dmax is greater than 80%. The DC50 under setting [1] was less than 10 nM.

Consider `N#Cc1ccc(OC2CCC(NC(=O)c3cnc(N4CCN(CC5[C@H]6CN(c7cc8c(cc7F)C(=O)N(C7CCC(=O)NC7=O)C8=O)C[C@@H]56)CC4)nc3)CC2)cc1Cl` (stereo partly drawn) [Compound 128], for which the “Dmax (%)” value was “+++ (key: ++++: >80%; +++: 80%-60%; ++: 60%-40%; +: <40%)”. Also, the DC50 (read-out: DC50) lay within 10 to 100 nM.

In the case of `N#Cc1ccc(O[C@H]2CC[C@H](NC(=O)c3ccc(N4CC5(CC(N6CCN(c7cc8c(cc7F)C(=O)N(C7CCC(=O)NC7=O)C8=O)CC6)C5)C4)nn3)CC2)cc1Cl` (stereo partly drawn) [Compound 129, N-((1r,4r)-4-(3-chloro-4-cyanophenoxy)cyclohexyl)-6-(6-(4-(2-(2,6-dioxopiperidin-3-yl)-6-fluoro-1,3-dioxoisoindolin-5-yl)piperazin-1-yl)-2-azaspiro[3.3]heptan-2-yl)pyridazine-3-amide], under setting [1], the DC50 was less than 10 nM. In addition, under setting [2], the Dmax is greater than 80%.

As for `N#Cc1ccc(O[C@H]2CC[C@H](NC(=O)c3ccc(N4CCC(CN5CCC6(CC5)CN(c5ccc7c(c5)C(=O)N(C5CCC(=O)NC5=O)C7=O)C6)CC4)nn3)CC2)cc1` (stereo partly drawn) [Compound 131, N-((1r,4r)-4-(4-cyanophenoxy)cyclohexyl)-6-(4-((2-(2-(2,6-dioxopiperidin-3-yl)-1,3-dioxoisoindolin-5-yl)-2,7-diazaspiro[3.5]nonan-7-yl)methyl)piperidin-1-yl)pyridazine-3-carboxamide], the DC50 is 10 to 100 nM and the Dmax lay in the range of 60 to 80%.
